Values of other authors as cited in patent US20030113384A1, “Antimicrobial compositions for mastitis control” (Ecolab Inc., priority 1999, published 2003).

pKa: 4.4
Compound: CCCCCCC(=O)O [heptanoic acid]
